Literature values, collected in patent publication US20150104528A1, “TREATMENT FOR DEPRESSION AND OTHER MENTAL CONDITIONS WITH SYNTHETIC ISOTOPE-MODIFIED LITHIUM” (priority 2013, published 2015).

System: female mother rats
Conditions: female mother rats fed the substance; same dosage level for both groups

## [6Li] [lithium-6]
  state of alertness compared to control rats fed a placebo: very high
